Source: patent US7026357B2, “Diphenylurea compounds” (Les Laboratoires Servier, priority 2000, dated 2006)

What was measured:
male CD-1 mice = test: Test in the mouse of aggressiveness induced by isolation; assay type: in vivo; details: isolated male CD-1 mice; subcutaneous administration; 30 minutes before test; three minutes observation
From the text: The animals used are male CD-1 mice. On arrival, the mice are isolated in individual cages with free access to food and drink. After a period of isolation of one month, pairs of mice that are constant in their aggressiveness are selected by observation of the latent period, the number and the duration of attacks when they are placed in each other's presence. The test takes place once a week. On the day of the test, each mouse of the pair of mice (resident mouse and intruder mouse) is given a subcutaneous injection of carrier (control animals) or of test product (treated animals) in a volume of 10 ml/kg. After 30 minutes, the intruder mouse is introduced into the cage of the resident mouse. The latent period of the first attack and the number and duration of attacks are then measured for a period of three minutes. A product is considered as specifically anti-aggressive when it reduces the number and the duration of attacks at non-sedative doses.

5-HT2c receptors = biological target: T1, 5-HT2c receptors (Rattus norvegicus, UniProt P08909); test: Penile erection test in the rat (erections induced by RO 60-0175); assay type: in vivo; details: male Wistar rats; RO 60-0175 1.25 mg/kg s.c. 30 min after test compound; erections counted during 30 minutes
T1 construct: Male Wistar rats weighing from 120 to 140 g on the day of the experiment; from tissue; host or cells: whole animal (male Wistar rat), endogenous receptor
T1 sequence (P08909 33-460): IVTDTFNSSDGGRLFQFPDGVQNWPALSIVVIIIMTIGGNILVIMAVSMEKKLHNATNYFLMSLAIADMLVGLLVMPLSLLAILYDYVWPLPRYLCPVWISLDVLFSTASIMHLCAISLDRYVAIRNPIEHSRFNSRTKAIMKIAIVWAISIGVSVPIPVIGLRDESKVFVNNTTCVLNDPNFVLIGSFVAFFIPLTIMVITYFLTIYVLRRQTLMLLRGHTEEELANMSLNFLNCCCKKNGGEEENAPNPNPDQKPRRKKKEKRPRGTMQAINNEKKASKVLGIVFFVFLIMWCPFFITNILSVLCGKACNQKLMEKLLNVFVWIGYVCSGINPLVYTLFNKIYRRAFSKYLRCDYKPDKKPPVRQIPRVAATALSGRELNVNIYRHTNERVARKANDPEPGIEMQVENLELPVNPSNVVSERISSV
Description: The test allows the evaluation of the capacity of pharmacological agents to inhibit penile erections caused by the administration of a 5-HT2c selective agonist, RO 60-0175.
Male Wistar rats weighing from 120 to 140 g on the day of the experiment are placed individually into plexiglass observation boxes immediately after having been administered the test compound or the carrier. Thirty minutes later, the animals are administered RO 60-0175 (1.25 mg/kg, subcutaneous route) and the number of erections that occur during the 30 minutes that follow is counted.

Male NMRI mice = test: Marble-burying test in the mouse; assay type: in vivo; details: 0.5 h, 24 marbles, 30 minutes' free exploration, read-out: effective dose 50 (ED50), inhibition of marble-burying
From the text: This test allows evaluation of the capacity of pharmacological agents to inhibit the spontaneous marble-burying behaviour in mice, the inhibition being predictive of antidepressant and/or anti-impulsive action. Male NMRI mice weighing from 20 to 25 g on the day of the experiment are placed individually in Macrolon boxes containing 5 cm of sawdust and covered with a perforated plexiglass plate. Twenty four “tiger's eye” glass marbles are evenly distributed on the sawdust at the periphery of the box. At the end of 30 minutes' free exploration, the animals are removed from the box and the number of buried marbles is counted.

melting point [°C] | SMILES | other results
227 to 229 | Cc1ccc(NC(=O)Nc2cccc(CC3=NCCN3)c2)cc1Cl.Cl | –
193 to 197 | COc1ccc(NC(=O)Nc2ccc(C)c(Cl)c2)cc1N1CCN(CC2COc3ccccc3O2)CC1.Cl (centres unmarked) | –
194 to 196 | Cl.Cl.O=C(Nc1cccc(N2CCN(CC3COc4ccccc4O3)CC2)c1)N1CCc2c1ccc1ccccc21 (centres unmarked) | –
202 to 204 | Cl.Cl.O=C(Nc1cccc(N2CCN(CC3COc4ccccc4O3)CC2)c1)N1CCc2cc(F)c(Cl)cc21 (centres unmarked) | –
234 to 236 | COc1ccc(NC(=O)Nc2ccc(C)c(C)c2)cc1N1CCN(CC2COc3ccccc3O2)CC1.Cl.Cl (centres unmarked) | –
120 to 130 | COc1ccc(NC(=O)Nc2ccc(F)c(Cl)c2)cc1N1CCN(CC2COc3ccccc3O2)CC1.Cl (centres unmarked) | –
228 to 230 | Cc1ccc(NC(=O)Nc2cccc(N3CCN(CC4COc5ccccc5O4)CC3)c2)cc1C.Cl (centres unmarked) | –
132 to 136 | Cl.O=C(Nc1cccc(N2CCN(CC3COc4ccccc4O3)CC2)c1)Nc1ccc(F)c(Cl)c1 (centres unmarked) | –
174 to 176 | Cc1cc2c(cc1Cl)N(C(=O)Nc1ccc(N3CCN(CC4COc5ccccc5O4)CC3)cc1)CC2.Cl.Cl (centres unmarked) | –
235 to 237 | Cc1ccc(NC(=O)Nc2ccc3c(c2)CC(c2c[nH]cn2)C3)cc1Cl.Cl (centres unmarked) | –
100 to 102 | Cc1ccc(NC(=O)Nc2cccc(C(C)C3=NCCN3)c2)cc1Cl.Cl (centres unmarked) | –
243 to 245 | CSc1ccc(NC(=O)Nc2ccc3c(c2)CC(c2c[nH]cn2)C3)cc1.Cl (centres unmarked) | –
232 to 234 | Cc1ccc(NC(=O)Nc2ccc3c(c2)CC(c2c[nH]cn2)C3)cc1C.Cl (centres unmarked) | –
237 to 239 | Cc1ccc(NC(=O)Nc2ccc3c(c2)CN(C2=NCCN2)CC3)cc1Cl.Cl | –
237 to 239 | Cc1ccc(NC(=O)Nc2cccc(CCc3c[nH]cn3)c2)cc1Cl.Cl | –
212 to 214 | Cc1ccc(NC(=O)Nc2cccc(CCC3=NCCN3)c2)cc1Cl.Cl | –
255 to 257 | Cc1ccc(NC(=O)Nc2ccc3c(c2)C(c2c[nH]cn2)CCC3)cc1Cl.Cl (centres unmarked) | –
206 to 208 | Cc1ccc(NC(=O)Nc2ccc3c(c2)CC(c2c[nH]cn2)CC3)cc1Cl.Cl (centres unmarked) | –
> 260 | Cc1ccc(NC(=O)Nc2ccc3c(c2)C(c2c[nH]cn2)CCO3)cc1Cl.Cl (centres unmarked) | –
232 to 233 | Cc1ccc(NC(=O)Nc2cccc(C(C)(C)C3=NCCN3)c2)cc1Cl.Cl | –
206 to 208 | COc1ccc(NC(=O)Nc2ccc(C)c(Cl)c2)cc1N1CCN(C)CC1.Cl | –
229 to 231 | Cc1ccc(NC(=O)Nc2ccc(C)c(N3CCN(C)CC3)c2)cc1Cl.Cl | –
252 to 254 | Cc1ccc(NC(=O)Nc2ccc(C)c(NC3=NCCN3)c2)cc1Cl.Cl | –
180 to 185 | Cc1ccc(NC(=O)Nc2cccc(NC3=NCCN3)c2)cc1Cl.Cl | –
255 to 257 | Cc1ccc(NC(=O)Nc2ccc(Cl)c(NC3=NCCN3)c2)cc1Cl.Cl | –

SMILES | melting point [°C] | other results
Cc1ccc(NC(=O)Nc2cccc(N3CCN(CC4COc5ccccc5O4)CC3)c2)cc1Cl.Cl (centres unmarked) [Example 6, N-(3-Chloro-4-methylphenyl)-N′-{3-[4-(2,3-dihydro-1,4-benzodioxin-2-ylmethyl)-1-piperazinyl]phenyl}urea hydrochloride] | 180 to 185 | inhibitory dose 50 (ID50), number and duration of attacks (male CD-1 mice): 2.5 mg/kg; inhibitory dose 50 (ID50), inhibition of penile erections (5-HT2c receptors): 0.7 mg/kg; ED50 (Male NMRI mice): 0.4 mg/kg
